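Following 48 hours of exposure in 96-well plates, responses at five concentrations were used to interpolate endpoints linearly. GI50 = concentration required for 50% inhibition of growth.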 Activity calls are given as the source filed them. Rule as the data show it: active = GI50 up to about 1.1 µM and inactive = higher.
Experiments:
Assay in all cases: inhibition of tumour cell growth, NCI panel, 48 h
M14 = test system: M14
NCI-H460 = test system: NCI-H460
SF-295 = test system: SF-295
T47D = test system: T47D
U-251 = test system: U-251
RPMI-8226 = test system: RPMI-8226
KM12 = test system: KM12
SN12C = test system: SN12C
UACC-257 = test system: UACC-257
HT-29 = test system: HT-29
ACHN = test system: ACHN
SF-268 = test system: SF-268
OVCAR-4 = test system: OVCAR-4
RXF 393 = test system: RXF 393
Malme-3M = test system: Malme-3M
MDA-MB-231 = test system: MDA-MB-231
SW-620 = test system: SW-620
SNB-19 = test system: SNB-19
SK-MEL-2 = test system: SK-MEL-2
HOP-62 = test system: HOP-62

Measured: GI50

CC(NC(=O)/C(=C/c1ccccc1O)NC(=O)c1ccccc1)C(=O)O (stereo not drawn)
inactive: M14 51.3 µM | NCI-H460 24.5 µM | SF-295 21.4 µM | T47D 13.2 µM | U-251 50.5 µM | RPMI-8226 > 100 µM | KM12 16.8 µM | SN12C 21.6 µM | UACC-257 70 µM | HT-29 73.5 µM | ACHN 19.1 µM | SF-268 15.8 µM | OVCAR-4 40.4 µM | RXF 393 21.8 µM | Malme-3M 21 µM | MDA-MB-231 22 µM | SW-620 > 100 µM | SNB-19 20.6 µM

NNC(=O)CNC(=O)CSc1nnc(COc2ccc(Cl)cc2)n1-c1ccccc1
inactive: SK-MEL-2 > 100 µM | M14 > 100 µM | NCI-H460 > 100 µM | SF-295 > 100 µM | T47D > 100 µM | U-251 > 100 µM | KM12 > 100 µM | SN12C > 100 µM | UACC-257 > 100 µM | HT-29 > 100 µM | ACHN > 100 µM | SF-268 > 100 µM | OVCAR-4 > 100 µM | HOP-62 > 100 µM | RXF 393 > 100 µM | Malme-3M > 100 µM | MDA-MB-231 > 100 µM | SW-620 > 100 µM | SNB-19 > 100 µM

COc1ccc(/C=c2/[nH]c(=O)/c(=C\c3ccc(OCc4ccccc4)cn3)[nH]c2=O)cc1
inactive: SK-MEL-2 51.8 µM | M14 62.8 µM | NCI-H460 63.8 µM | SF-295 40.6 µM | T47D > 100 µM | U-251 40.6 µM | KM12 47.1 µM | SN12C > 100 µM | UACC-257 > 100 µM | HT-29 50.5 µM | ACHN > 100 µM | SF-268 41.2 µM | OVCAR-4 > 100 µM | HOP-62 43 µM | RXF 393 23.2 µM | Malme-3M > 100 µM | MDA-MB-231 > 100 µM | SW-620 62.4 µM | SNB-19 34.4 µM

COc1ccc(-c2c(C(C)=O)c(-c3ccccc3)n(C3OC(COC(C)=O)C(OC(C)=O)C(OC(C)=O)C3OC(C)=O)c(=S)c2C#N)cc1 (stereo not drawn)
inactive: M14 > 100 µM | NCI-H460 > 100 µM | SF-295 > 100 µM | T47D > 100 µM | U-251 > 100 µM | KM12 > 100 µM | SN12C > 100 µM | UACC-257 > 100 µM | HT-29 > 100 µM | ACHN > 100 µM | SF-268 > 100 µM | OVCAR-4 > 100 µM | HOP-62 > 100 µM | RXF 393 > 100 µM | Malme-3M > 100 µM | MDA-MB-231 > 100 µM | SW-620 > 100 µM | SNB-19 > 100 µM

CC1=C(/C=C/C(C)=C/C=C/C(C)=C/CO)C(C)(C)CCC1 [RETINOL]
inactive: SK-MEL-2 20.7 µM | M14 16.8 µM | NCI-H460 30.5 µM | SF-295 24.2 µM | T47D 14.5 µM | U-251 21.2 µM | KM12 36.1 µM | SN12C 21.7 µM | UACC-257 27.6 µM | HT-29 27.2 µM | ACHN 29.4 µM | SF-268 28.6 µM | OVCAR-4 37.7 µM | HOP-62 22.1 µM | RXF 393 12.4 µM | Malme-3M 11.1 µM | MDA-MB-231 29 µM | SW-620 19.4 µM | SNB-19 22.1 µM
